Assay results reported in patent US9055745B2, “Compositions for internal and external insecticides, ovicides, repellents and wound healing” (Natureza, Inc., priority 2011, dated 2015).

What was measured:
ctenocephalides felis = assay: Efficacy of fatty acid methyl esters in water or acetone on glass paper (Table 14); assay type: in vivo
Excerpt: Further results are shown below in Table 14, regarding the efficacy of various fatty acid methyl and ester esters against fleas (ctenocephalides felis).

fleas = assay: Flea contact test using impregnated glass paper (Example XIII, FIG. 15, Table 13); assay type: in vivo; conditions: for Mortality of the fleas: 200 μL on glass filter paper, after twenty-four hours, 12 fleas
Description: The fatty acids used in the test were mono laurin and lauric acid, while the fatty acid esters used in the test were methyl laurate, i.e. lauric acid methyl ester and ethyl dodecanoate, i.e. lauric acid ethyl ester. Each of these compounds were dissolved in ethanol in concentrations of 0.1% and 1%, and then 200 μL (micro liters) of each solution was placed on glass filter paper (15×150 mm). After the ethanol had evaporated a paper for each concentration of each compound was put into a test tube, and 12 fleas were added per test tube and the top of the test tube was covered. Whether the fleas were alive or dead at was measured after 2 and twenty-four hours. […] Further results are shown below in Table 13.

| SMILES | 5 Hours Alive (ctenocephalides felis; 0.1% in Acetone) | 5 Hours Dead (ctenocephalides felis; 0.1% in Acetone) | 2 hours Alive (ctenocephalides felis; 0.1% in Acetone) | 2 hours Dead (ctenocephalides felis; 0.1% in Acetone) | 20 hours Alive (ctenocephalides felis; 0.1% in Acetone) | 20 hours Dead (ctenocephalides felis; 0.1% in Acetone) | 5 Hours Alive (ctenocephalides felis; 0.1% in Water) | 5 Hours Dead (ctenocephalides felis; 0.1% in Water) | 2 hours Alive (ctenocephalides felis; 0.1% in Water) | 2 hours Dead (ctenocephalides felis; 0.1% in Water) | 20 hours Alive (ctenocephalides felis; 0.1% in Water) | 20 hours Dead (ctenocephalides felis; 0.1% in Water) | 5 Hours Alive (ctenocephalides felis; 1% in Acetone) | 5 Hours Dead (ctenocephalides felis; 1% in Acetone) | 2 hours Alive (ctenocephalides felis; 1% in Acetone) | 2 hours Dead (ctenocephalides felis; 1% in Acetone) | 20 hours Alive (ctenocephalides felis; 1% in Acetone) | 20 hours Dead (ctenocephalides felis; 1% in Acetone) | 5 Hours Alive (ctenocephalides felis; 1% in Water) | 5 Hours Dead (ctenocephalides felis; 1% in Water) | also measured |
| --- | --- | --- | --- | --- | --- | --- | --- | --- | --- | --- | --- | --- | --- | --- | --- | --- | --- | --- | --- | --- | --- |
| CCCCCCCCCC(=O)OC [Methyl decanoate] | 12 | 0 | 12 | 0 | 12 | 0 | 11 | 0 | 11 | 0 | 11 | 0 | 14 | 0 | 14 | 0 | 14 | 0 | 19 | 0 | 2 hours Alive (ctenocephalides felis; 1% in Water): 19; 2 hours Dead (ctenocephalides felis; 1% in Water): 0; 20 hours Alive (ctenocephalides felis; 1% in Water): 19; 20 hours Dead (ctenocephalides felis; 1% in Water): 0 |
| CO[C@H]1CO[C@H]2[C@@H]1OC[C@H]2OC [ISDE - 1% (benign base), isosorbide dimethyl ether] |  |  |  |  |  |  |  |  |  |  |  |  |  |  |  |  |  |  |  |  | % Killed (fleas; after 24 hours): 0%; 2 hours Alive (fleas; number of fleas, 2 hours): 12; 2 hours Dead (fleas; number of fleas, 2 hours): 0; 24 hours Alive (fleas; number of fleas, 24 hours): 12; 24 hours Dead (fleas; number of fleas, 24 hours): 0 |
| CCCCCCCCCCCC(=O)OCC [lauric acid ethyl ester] |  |  |  |  |  |  |  |  |  |  |  |  |  |  |  |  |  |  |  |  | Mortality of the fleas (fleas; 0.1% in ethanol): 100%; Mortality of the fleas (fleas; 1% in ethanol): 100% |
| CCCCCCCCC(=O)OC [Methyl nonanoate] | 14 | 0 | 14 | 0 | 14 | 0 | 12 | 0 | 12 | 0 | 12 | 0 | 9 | 0 | 9 | 0 | 9 | 0 | 14 | 0 | 2 hours Alive (ctenocephalides felis; 1% in Water): 14; 2 hours Dead (ctenocephalides felis; 1% in Water): 0; 20 hours Alive (ctenocephalides felis; 1% in Water): 14; 20 hours Dead (ctenocephalides felis; 1% in Water): 0 |
| CCCCCCCC(=O)OC [Methyl octanoate] | 16 | 0 | 16 | 0 | 16 | 0 | 10 | 0 | 10 | 0 | 10 | 0 | 8 | 0 | 8 | 0 | 8 | 0 | 5 | 0 | 2 hours Alive (ctenocephalides felis; 1% in Water): 5; 2 hours Dead (ctenocephalides felis; 1% in Water): 0; 20 hours Alive (ctenocephalides felis; 1% in Water): 5; 20 hours Dead (ctenocephalides felis; 1% in Water): 0 |
| CCCCCCCCCCCC(=O)OC [Methyl laurate, lauric acid methyl ester] | 15 | 0 | 15 | 0 | 15 | 0 | 15 | 0 | 15 | 0 | 15 | 0 | 0 | 13 | 0 | 13 | 0 | 13 | 11 | 0 | Mortality of the fleas (fleas; 0.1% in ethanol): 100%; Mortality of the fleas (fleas; 1% in ethanol): 100%; 2 hours Alive (ctenocephalides felis; 1% in Water): 11; 2 hours Dead (ctenocephalides felis; 1% in Water): 0; 20 hours Alive (ctenocephalides felis; 1% in Water): 11; 20 hours Dead (ctenocephalides felis; 1% in Water): 0 |
